Measurements published in patent US20230324370A1, “A DNA-Based Voltmeter for Organelles” (The University of Chicago, priority 2020, published 2023).

Legend:
[1] = tested on: cytosolic Ca^2+ in COS-7 cells; test: Cytosolic calcium imaging with Fluo-4 AM upon ATP addition; format: cell-based, Monkey; conditions: COS-7, 100 µM ATP
lysosomes of COS-7 cells = test: Time lapse imaging of lysosomal membrane potential upon ATP addition; format: cell-based, Monkey; conditions: COS-7, 100 µM ATP
From the text: Time lapse Imaging: […] Image acquisition was briefly paused at indicated time for addition of chemicals (ML-SA1, Baf-A1, ATP or DMSO) to cells. To minimize bleaching, time-lapse imaging was done at single focal plane. Z-drift compensator module from IX83 was applied to minimize out of focus drift during time lapse imaging. The extracellular ATP induced cytosolic calcium increase was imaged by labeling COS-7 cells with cell permeable calcium sensitive dye Fluo4-AM ester. Time-lapse imaging of Fluo-4 labeled COS-7 cells were acquired using a 480/20 band pass excitation filter, 520/40 band pass emission filter and 89016 dichroic, at 1 s interval for 20 mins.

[2] = tested on: lysosomes in HEK 293T cells; test: In situ lysosomal membrane potential measurement with Voltair^IM, with and without pharmacological treatment; format: cell-based, Human; conditions: for ΔVLys: HEK 293T
early endosomes = test: Time-lapse imaging of early endosome membrane potential upon TRPML1 activation; format: cell-based; conditions: ML-SA1
[3] = tested on: recycling endosomes in HEK 293T cells; test: Organellar membrane potential measurement, recycling endosomes; format: cell-based, Human; conditions: 500 nM bafilomycin A1
[4] = tested on: trans Golgi network in HEK 293 cells expressing scFv-furin; test: Organellar membrane potential measurement, trans Golgi network; format: cell-based, Human; conditions: V-ATPase inhibition (bafilomycin A1 500 nM per FIG. 4)
[5] = tested on: endogenous scavenger receptor; test: Competition assay of DNA nanodevice uptake in cell types expressing endogenous scavenger receptor; format: cell-based; conditions: THP-1, BHK-21, HDF, RAW 264.7, T-47D, COS-7
[6] = target: T1, human macrophage scavenger receptor (hMSR1) (Homo sapiens, UniProt P21757); test: Competition assay of DNA device uptake with maleylated BSA; format: cell-based
T1 construct: expressed in transfected cells; host or cells: HEK 293T
T1 sequence (P21757 1-451): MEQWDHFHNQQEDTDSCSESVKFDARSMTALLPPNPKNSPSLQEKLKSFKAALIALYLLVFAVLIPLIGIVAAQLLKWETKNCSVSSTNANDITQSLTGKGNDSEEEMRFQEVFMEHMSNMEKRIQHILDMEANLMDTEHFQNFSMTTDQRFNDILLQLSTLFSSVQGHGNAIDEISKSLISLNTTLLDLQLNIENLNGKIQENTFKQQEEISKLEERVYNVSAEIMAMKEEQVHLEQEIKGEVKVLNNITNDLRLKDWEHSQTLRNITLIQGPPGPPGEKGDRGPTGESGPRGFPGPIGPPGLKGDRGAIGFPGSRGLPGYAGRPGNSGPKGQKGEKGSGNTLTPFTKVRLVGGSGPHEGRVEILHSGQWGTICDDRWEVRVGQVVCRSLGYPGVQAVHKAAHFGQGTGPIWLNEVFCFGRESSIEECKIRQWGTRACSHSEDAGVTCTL
Experimental: Competition assay: HEK 293T cells transfected with hMSR1-CFP were washed with 1X PBS, pH 7.4 prior to labeling with the DNA device. Cells were incubated with 20 µM maleylated BSA (mBSA) for 15 min, followed by a 20 min pulse of 500 nM DNA device and 20 µM mBSA to allow internalization by receptor mediated endocytosis. Control cells were washed and pulsed for 20 mins in 500 nM DNA device without mBSA. Cells were then washed three times with 1× PBS and chased for 30 mins in complete DMEM media. Complete media was replaced with Opti-MEM solution (Thermofisher) and imaged by widefield microscopy for quantification and confocal microscopy for representative images. Whole cell intensities in the Atto647N channel were quantified for cells expressing hMSR1-CFP observed in CFP channel. The mean intensity from three different experiments were normalized against the no mBSA control, for n~50 cells.

[7] = in the presence of Torin-1 and trans-ned-19 1 µM

## Nc1ncnc2c1ncn2[C@@H]1O[C@H](COP(=O)(O)OP(=O)(O)OP(=O)(O)O)[C@@H](O)[C@H]1O [ATP]
[1]
  time to maximum cytosolic Ca^2+ level after addition: ~ 5 seconds
Lysosomes of COS-7 cells
  acute hyperpolarization of the lysosomal membrane: +75 mV
  duration of lysosomal hyperpolarization: ~ 100 seconds
  time from maximal cytosolic Ca^2+ elevation to lysosomal hyperpolarization: ~ 80 seconds

## CC1CC(C)(C)N(C(=O)CN2C(=O)c3ccccc3C2=O)c2ccccc21 (stereo not shown) [ML-SA1]
[2]; ML-SA1 20 µM, TRPML1 activator
  ΔVLys: 90 mV
Early endosomes
  membrane potential in early endosomes (VEE) upon treatment: stayed constant

## O=c1[nH]c2cc(C(F)(F)F)ccc2n1-c1cc(C(F)(F)F)ccc1O [NS1619]
[2]; ML-SA1 as well as BK channel agonist NS1619
  ΔVLys: 50 mV

## CCC(=O)N1CCN(c2ccc(-n3c(=O)ccc4cnc5ccc(-c6cnc7ccccc7c6)cc5c43)cc2C(F)(F)F)CC1 [Torin-1]
[2]; Torin-1 1 µM, mTORC1 inhibition
  reduction of VLys from the resting VLys: ~60 mV

## CO/C1=C\C(C)=C\[C@@H](C)[C@@H](O)[C@@H](C)C/C(C)=C/C=C/[C@H](OC)[C@@H]([C@@H](C)[C@@H](O)[C@H](C)[C@@]2(O)C[C@@H](O)[C@H](C)[C@@H](C(C)C)O2)OC1=O [bafilomycin A1]
[2]; bafilomycin A1 500 nM, V-ATPase inhibition
  reduction of VLys from the resting membrane potential: ~ 100 mV
[3]
  change of VRE upon V-ATPase inhibition: no change
[4]
  membrane potential remaining across the TGN after V-ATPase inhibition: +75 mV

## COc1ccc([C@H]2N[C@H](C(=O)O)Cc3c2[nH]c2ccccc32)cc1CN1CCN(c2ccccc2F)CC1 [trans-ned-19]
[2]; [7]
  VLys: +80 mV
  ΔVLys due to TPC2 channel inhibition: 35 mV

## maleylated BSA: a strong ligand for scavenger receptors
[5]
  effect on DNA nanodevice uptake: decreases uptake
[6]; CFP-hMSR1 transfected HEK 293T, 30eq. mBSA, 500 nM Voltair^PM, 30 mins
  effect on endocytosis of Voltair^PM: blocks endocytosis
[6]; HEK 293T cells expressing hMSR1-CFP
  effect on uptake of Voltair^IM: efficiently competed out
